Test results as given in publication PMC5683375, “Vasculotide reduces pulmonary hyperpermeability in experimental pneumococcal pneumonia” (Critical Care, 2017).
Entries after “also recorded” stand apart in the source; their conditions may differ. Read-outs that look alike come from different tables or passages of the source.

What was measured:
[1] = test system: Streptococcus pneumoniae-infected mice; experiment: Lung permeability (HSA BALF/plasma ratio) in Streptococcus pneumoniae-infected mice
Procedure: (§2) For all experiments, female C57BL/6 N mice (8 to 10 weeks old, weighing 18 to 20 g; Charles River Laboratories, Sulzfeld, Germany) were used. Animals were housed under specific pathogen-free conditions under a 12–h/12-h light/dark cycle with free access to food and water.
Mice were anesthetized with ketamine (80 mg/kg) and xylazine (25 mg/kg) and transnasally inoculated with 5 × 10^6 colony-forming units (CFU) of S. pneumoniae (NCTC7978) in 20 μl of sterile PBS as described before [35]. Sham-infected control mice received 20 μl of sterile PBS. After 22 h, 34 h, and 46 h, body weight and rectal temperature were measured, and different dosages of VT (100, 200, or 500 ng in 100 μl of PBS) or PBS were intravenously injected into the tail vein. Twenty-four or forty-eight hours postinfection (p.i.), mice were anesthetized (160 mg/kg ketamine and 75 mg/kg xylazine) and exsanguinated. […] Subsequently, lungs were flushed, and BAL was performed. To determine permeability, HSA (1 mg/75 μl) was intravenously infused 1 h before lung preparation, and the BALF/plasma ratio was calculated as described elsewhere [35]. […] Cytokines from BALF were measured with a multiplex assay (ProcartaPlex; eBioscience), and plasma levels of interleukin (IL)-6 (BD Biosciences) and KC (keratinocyte chemoattractant; R&D Systems) were quantified by ELISA.

[2] = test system: human immunoglobulin G (IgG) Fc; experiment: Tryptophan fluorescence spectroscopy, VT with human IgG Fc (specificity control); type: binding; settings: recombinant human IgG Fc
Procedure: (§1) Binding studies were carried out in 96 well plates (Brand-plates pureGrade reference 781607; BRAND GMBH + CO KG, Wertheim, Germany). Mouse Tie2Fc receptor and human immunoglobulin G (IgG) Fc were obtained from R&D Systems (Minneapolis, MN, USA). Dilutions were prepared in HyClone™ Dulbecco’s PBS (GE Healthcare Life Sciences, Mississauga, ON, Canada). The saturation binding curve was prepared with all ligand dilutions and receptors as 2× concentrations. Equal volumes of ligand and receptor were added to generate a final 1× concentration (500 nM Tie2Fc final concentration). Spectroscopic studies were performed on a SpectraMax M2 fluorometer (Molecular Devices, Sunnyvale, CA, USA). Measurements were taken at an excitation wavelength of 295 nm. Emission scans were set from 360 to 450 nm.

[3] = target: T1, mouse Tie2Fc receptor (Mus musculus, UniProt Q02858); experiment: Tryptophan fluorescence spectroscopy, saturation binding of VT to mouse Tie2Fc
T1 construct: Fc (immunoglobulin Fc fusion partner); purchased R&D Systems
T1 sequence (Q02858 with tags, fused parts or gaps limits assumed): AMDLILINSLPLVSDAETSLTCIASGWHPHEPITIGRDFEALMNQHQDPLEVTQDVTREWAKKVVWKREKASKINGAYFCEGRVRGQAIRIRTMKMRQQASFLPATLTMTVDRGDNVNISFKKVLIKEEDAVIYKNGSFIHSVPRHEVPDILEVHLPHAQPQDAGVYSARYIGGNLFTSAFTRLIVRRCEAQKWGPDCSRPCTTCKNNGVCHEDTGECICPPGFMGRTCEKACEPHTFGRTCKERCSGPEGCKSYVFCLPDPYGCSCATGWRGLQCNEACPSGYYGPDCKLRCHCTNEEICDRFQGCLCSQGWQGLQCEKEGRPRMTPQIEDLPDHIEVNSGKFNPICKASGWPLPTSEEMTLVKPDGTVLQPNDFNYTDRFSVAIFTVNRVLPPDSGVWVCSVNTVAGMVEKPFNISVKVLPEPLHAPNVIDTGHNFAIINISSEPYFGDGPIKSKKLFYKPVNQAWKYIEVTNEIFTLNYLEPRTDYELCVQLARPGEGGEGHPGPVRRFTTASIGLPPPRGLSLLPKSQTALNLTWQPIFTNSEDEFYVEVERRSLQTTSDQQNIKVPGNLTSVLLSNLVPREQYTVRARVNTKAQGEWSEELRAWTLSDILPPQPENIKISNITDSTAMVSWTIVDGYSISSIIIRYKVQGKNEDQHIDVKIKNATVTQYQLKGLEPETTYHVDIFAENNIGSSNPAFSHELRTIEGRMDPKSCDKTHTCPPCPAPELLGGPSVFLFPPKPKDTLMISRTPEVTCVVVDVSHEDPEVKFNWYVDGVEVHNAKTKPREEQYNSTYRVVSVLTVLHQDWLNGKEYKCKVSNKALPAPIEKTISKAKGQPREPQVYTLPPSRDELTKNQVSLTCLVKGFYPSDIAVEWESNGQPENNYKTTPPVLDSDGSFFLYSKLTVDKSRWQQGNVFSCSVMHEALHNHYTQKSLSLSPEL
Procedure: as §1
Saturation binding data (Fig. 1a–c) are presented as mean ± SEM and were calculated using normalized one-site specific binding and nonlinear regression. For the Tie2 phosphorylation analysis (Fig. 1d), one-way analysis of variance (with Dunnett’s post hoc multiple comparisons test) was used to compare treatment groups with the vehicle-treated group. All other experimental data are expressed as mean, mean + SEM, or mean ± SEM. Groups were compared using the Mann-Whitney U test followed by the Bonferroni-Holm correction, where indicated. p Values < 0.05 were considered significant. Analyses were performed using Prism version 6.00 software (GraphPad Software, La Jolla, CA, USA).

[4] = test system: hPMVEC; set-up: method as in PMID 21421750; settings: cited from earlier work
[5] = test system: Streptococcus pneumoniae-infected mice; experiment: Blood leukocytes in Streptococcus pneumoniae-infected mice; settings: VT 500 ng i.v.; 24 h and 48 h p.i.; n = 8
Procedure: as §2
Mice were anesthetized with ketamine (80 mg/kg) and xylazine (25 mg/kg) and transnasally inoculated with 5 × 10^6 colony-forming units (CFU) of S. pneumoniae (NCTC7978) in 20 μl of sterile PBS as described before [35]. Sham-infected control mice received 20 μl of sterile PBS. After 22 h, 34 h, and 46 h, body weight and rectal temperature were measured, and different dosages of VT (100, 200, or 500 ng in 100 μl of PBS) or PBS were intravenously injected into the tail vein. Twenty-four or forty-eight hours postinfection (p.i.), mice were anesthetized (160 mg/kg ketamine and 75 mg/kg xylazine) and exsanguinated. […] Subsequently, lungs were flushed, and BAL was performed. […] Blood leukocytes were quantified using a scil Vet ABC Hematology Analyzer (scil animal care company GmbH, Viernheim, Germany).

[6] = test system: murine lung endothelial cells (mLEC); experiment: Transcellular electrical resistance (ECIS) of murine lung endothelial cells; settings: VT 2, 10, 50 ng/ml, 30 minutes pretreatment; PLY 0.75 μg/ml, 3 h; n = 4-7
Procedure: Briefly, mice were killed by an overdose of ketamine/xylazine. Lungs of four mice were pooled, minced, and digested by dispase (20 ml, 5 U/ml; BD Biosciences, Heidelberg, Germany) and DNase (20 ml, 0.5 mg/ml; AppliChem GmbH, Darmstadt, Germany). The homogenate was filtered, collected by centrifugation (300 × g), and washed twice, and the resulting cell suspension was incubated with antimouse VE-cadherin antibody (rat antimouse CD 144; BD Pharmingen, San Diego, CA, USA)-coated magnetic beads (sheep antirat IgG DynaBeads; Invitrogen GmbH, Karlsruhe, Germany) for positive isolation with the DynaMag-Spin magnet system (Invitrogen). The isolated cells were resuspended in Endothelial Cell Growth Medium MV2 (PromoCell), seeded onto fibronectin-coated (Sigma-Aldrich) culture dishes (diameter 35 mm), and grown to a confluent monolayer in 3–4 days. Then, cells were split after trypsinization [37], seeded and grown to confluence on fibronectin-coated evaporated gold microelectrodes (eight-well array with ten electrodes per well; ibidi GmbH, Martinsried, Germany) connected to an electric cell-substrate impedance sensing (ECIS) system (Applied Biophysics, Troy, NY, USA) [38] for continuous monitoring of transcellular electrical resistance (TER). Cells were pretreated with VT (2, 10, and 50 ng/ml) or PBS for 30 minutes and then stimulated with PLY (0.75 μg/ml) or PBS for 3 h.

[7] = test system: abdominal sepsis; set-up: method as in 3 sources, ref 26 = [26]; PMID 22040774; doi:10.1186/cc10523; 26. Kümpers P Gueler F David S Slyke PV Dumont DJ Park JK Bockmeyer CL Parikh SM Pavenstadt H Haller H The synthetic Tie2 agonist peptide Vasculotide protects against vascular leakage and reduces mort ||| ref 25, 26 = [25]; PMID 21421750; doi:10.1152/ajplung.00459.2010; 25. David S Ghosh CC Kumpers P Shushakova N Van Slyke P Khankin EV Karumanchi SA Dumont D Parikh SM Effects of a synthetic PEG-ylated Tie-2 agonist peptide on endotoxemic lung injury and mortality Am || [26]; PMID 22040774; doi:10.1186/cc10523; 26. Kümpers P Gueler F David S Slyke PV Dumont DJ Park JK Bockmeyer CL Parikh SM Pavenstadt H Haller H The synthetic Tie2 agonist peptide Vasculotide protects against vascular leakage and reduces mort ||| ref 26 (Kümpers et al.); settings: cited from earlier work
[8] = test system: Streptococcus pneumoniae-infected mice; experiment: Lung histology (edema formation, lung injury) in Streptococcus pneumoniae-infected mice; type: in vivo, mouse (C57BL/6 N)
Procedure: Identical experiments were performed separately for histological analyses of the lungs. Mice were anesthetized 24 h or 48 h p.i. […] After ligation of the trachea, mouse lungs were removed and immediately immersion-fixed in 4% buffered formalin, embedded in paraffin, cut into 2-μm-thick sections, and stained with hematoxylin and eosin as described elsewhere. The degree of edema formation was assessed semiquantitatively (0 = no edema, 1 = minimal edema, 2 = mild edema, 3 = moderate edema, 4 = severe edema). Three evenly distributed sections per lung were microscopically evaluated to assess edema formation.

[9] = test system: S. pneumoniae; experiment: Bacterial burden in BALF and blood of Streptococcus pneumoniae-infected mice; settings: VT 500 ng i.v., 24 h and 48 h p.i., n = 8
Procedure: Mice were anesthetized with ketamine (80 mg/kg) and xylazine (25 mg/kg) and transnasally inoculated with 5 × 10^6 colony-forming units (CFU) of S. pneumoniae (NCTC7978) in 20 μl of sterile PBS as described before [35]. Sham-infected control mice received 20 μl of sterile PBS. After 22 h, 34 h, and 46 h, body weight and rectal temperature were measured, and different dosages of VT (100, 200, or 500 ng in 100 μl of PBS) or PBS were intravenously injected into the tail vein. Twenty-four or forty-eight hours postinfection (p.i.), mice were anesthetized (160 mg/kg ketamine and 75 mg/kg xylazine) and exsanguinated. […] Subsequently, lungs were flushed, and BAL was performed.
S. pneumoniae (S. pn.) infected mice (5x106
CFU/mouse) were intravenously (i.v.) treated with Vasculotide (VT; 500 ng) or PBS 22 h, 34
h and 46 h post infection (p.i.). The bacterial burden was quantified in bronchoalveolar lavage
fluid (BALF) and in blood 24 h or 48 h p.i.

[10] = test system: mouse lungs; experiment: Isolated perfused and ventilated mouse lung, PLY-induced permeability (ex vivo); set-up: species or system mouse (C57BL/6 N); settings: VT 50 or 100 ng/ml, 15 minutes before PLY 1.4 μg/ml, BAL 30 minutes after PLY, HSA 0.04% in perfusate, n = 6-8
Procedure: Mouse lungs were prepared as described previously. Briefly, anesthetized mice were tracheotomized and ventilated. After sternotomy and cannulation of the left atrium and pulmonary artery, lungs were perfused with 37 °C sterile Krebs-Henseleit hydroxyethyl-amylopectin buffer (1 ml/minute) and ventilated by negative pressure (Pexp −4.5, Pins −9.0 cmH2O) in a humidified chamber. After a 20-minute steady state, continuous infusion of VT (50 or 100 ng/ml) or PBS was commenced. Five minutes later, human serum albumin (HSA) was admixed to the perfusate (0.04%) for permeability quantification. Ten minutes thereafter, 1.4 μg/ml PLY was infused into the pulmonary artery for 1 minute. Bronchoalveolar lavage (BAL) was performed 30 minutes after PLY application, and HSA concentration was measured in bronchoalveolar fluid (BALF).

Vasculotide [VT]
lung permeability (HSA BALF/plasma ratio), 48 h p.i., second set ([1]; VT 500 ng i.v. at 22, 34, 46 h p.i., Fig. 4b, n = 8, vs PBS): decreased pulmonary barrier disruption; also recorded: Lung permeability was decreased
lung hyperpermeability (HSA BALF/plasma ratio), 48 h p.i. ([1]; VT 500 ng i.v. at 22, 34, 46 h p.i., dose-finding experiment (Fig. 3b), n = 5-7, vs PBS): significant permeability reduction; also recorded: significantly reduced lung hyperpermeability
lung permeability (HSA BALF/plasma ratio), 24 h p.i., second set ([1]; VT 500 ng i.v. at 22 h p.i., Fig. 4a, n = 8, vs PBS): decreased pulmonary barrier disruption; also recorded: Lung permeability was decreased
lung hyperpermeability (HSA BALF/plasma ratio), 24 h p.i. ([1]; VT 500 ng i.v. at 22 h p.i., dose-finding experiment (Fig. 3a), n = 5-7, vs PBS): significant permeability reduction; also recorded: significantly reduced lung hyperpermeability
lung hyperpermeability, dose dependence ([1]; VT 100, 200, 500 ng i.v. from 22 h p.i., 24 h and 48 h p.i.): reduced lung hyperpermeability in a dose-dependent fashion; also recorded: quickly and effectively reduce pulmonary hyperpermeability in a dose-dependent manner
fluorescence intensity / binding with human IgG Fc [2]: No saturation of binding is observed; also recorded: no dose-dependent increase in fluorescence intensity
saturability of fluorescence intensity with mouse Tie2Fc ([3]; 500 nM Tie2Fc): saturable
intrinsic fluorescence intensity / binding with mouse Tie2Fc ([3]; 500 nM Tie2Fc, excitation 295 nm): dose-dependent binding; also recorded: dose-dependent increase in intrinsic fluorescence intensity
Kd ([3]; 95% confidence interval, 500 nM Tie2Fc, one-site specific binding, read-out: 95% CI of the dissociation constant, mouse Tie2Fc): 2.92 to 67 nM
dissociation constant, in words ([3]; murine Tie2 receptor, discussion): in the low nanomolar range
Kd ([3]; tryptophan fluorescence, excitation 295 nm, emission 360-450 nm, 500 nM Tie2Fc, PBS, normalized one-site specific binding, nonlinear regression, read-out: dissociation constant of the normalized specific binding of VT to mouse Tie2Fc): 35 nM
protection of endothelial cells from LPS-induced disruption [4]: protects hPMVEC after LPS stimulation; also recorded: protect endothelial cells from lipopolysaccharide (LPS)-induced disruption
blood leukocytes [5]: unaffected; also recorded: did not differ
PLY-induced TER decrease [6]: attenuated the PLY-induced TER decrease in a dose-dependent manner
protective effect in murine endotoxemia and abdominal sepsis (sepsis part) ([7]; abdominal sepsis): protective effect
barrier disruption in experimental sepsis [7]: diminish barrier disruption
local and systemic inflammatory markers after abdominal sepsis ([7]; treatment started 2 h after cecal ligation and puncture, ref 26 (Kümpers et al.)): reductions in local and systemic inflammatory markers
lung injury (histology) ([8]; VT 500 ng i.v., 24 h and 48 h p.i., n = 3-4, vs PBS): reduced lung injury
perivascular edema formation, 24 h p.i. ([8]; VT 500 ng i.v., 24 h p.i., n = 3-4, vs PBS): considerably reduced
neutrophil infiltration of perivascular spaces, 48 h p.i. ([8]; VT 500 ng i.v., 48 h p.i., n = 3-4): without differences between the VT-treated and untreated infected groups
alveolar edema formation, 48 h p.i. ([8]; VT 500 ng i.v., 48 h p.i., n = 3-4, vs PBS): diminished; also recorded: almost completely abolished (three of four mice); also recorded: nearly devoid of the additional massive alveolar edema formation
perivascular edema, 48 h p.i. ([8]; VT 500 ng i.v., 48 h p.i., n = 3-4, vs untreated (PBS)): less perivascular edema than the untreated group
edema or other pathological changes in perivascular spaces, sham-infected ([8]; sham-infected groups, VT 500 ng i.v. or PBS, 24 h and 48 h p.i.): no edema formation or other pathological changes
bacterial burden in BALF ([9]; BALF): did not affect; also recorded: not significantly reduced
bacterial burden in blood ([9]; blood): did not affect; also recorded: not significantly reduced
PLY-induced lung hyperpermeability (HSA in BALF) [10]: decreased PLY-induced pulmonary permeability; also recorded: significantly decreased hyperpermeability of mouse lungs; also recorded: dose-dependently decreased hyperpermeability of mouse lungs
